Experimental data from the supplement of paper PMC10307832.

Tests used:
Test in all cases: relative viability (nuclei count vs DMSO), 5 days (fraction); higher = more cells survive
Olaparib + Palbociclib = compound: O=C(c1cc(Cc2n[nH]c(=O)c3ccccc23)ccc1F)N1CCN(C(=O)C2CC2)CC1 [Olaparib] + CC(=O)c1c(C)c2cnc(Nc3ccc(N4CCNCC4)cn3)nc2n(C2CCCC2)c1=O [Palbociclib] (partner 0.5 µM)
Procedure, shortened: (§1)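 Lung cancer cell lines in 1536-well plates got either a single drug or a fixed anchor-drug dose together with five library-drug doses (not always all listed) in √10 steps, by pin tool, on the day after seeding. Nuclei were counted after 5 days, and relative viability is the treated-to-vehicle ratio of nuclei counts. Values are medians of duplicate plates.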

Olaparib + Luminespib = compound: O=C(c1cc(Cc2n[nH]c(=O)c3ccccc23)ccc1F)N1CCN(C(=O)C2CC2)CC1 [Olaparib] + CCNC(=O)c1noc(-c2cc(C(C)C)c(O)cc2O)c1-c1ccc(CN2CCOCC2)cc1 [Luminespib] (partner 0.01 µM)
Procedure, shortened: as §1

Olaparib + OSI-027 = compound: O=C(c1cc(Cc2n[nH]c(=O)c3ccccc23)ccc1F)N1CCN(C(=O)C2CC2)CC1 [Olaparib] + COc1cccc2cc(-c3nc([C@H]4CC[C@H](C(=O)O)CC4)n4ncnc(N)c34)[nH]c12 [OSI-027] (partner 0.5 µM)
Procedure, shortened: as §1

Olaparib + Lapatinib = compound: O=C(c1cc(Cc2n[nH]c(=O)c3ccccc23)ccc1F)N1CCN(C(=O)C2CC2)CC1 [Olaparib] + CS(=O)(=O)CCNCc1ccc(-c2ccc3ncnc(Nc4ccc(OCc5cccc(F)c5)c(Cl)c4)c3c2)o1 [Lapatinib] (partner 2 µM)
Procedure, shortened: as §1

Olaparib + Decitabine = compound: O=C(c1cc(Cc2n[nH]c(=O)c3ccccc23)ccc1F)N1CCN(C(=O)C2CC2)CC1 [Olaparib] + Nc1ncn([C@H]2C[C@H](O)[C@@H](CO)O2)c(=O)n1 [Decitabine] (partner 2 µM)
Procedure, shortened: as §1

## NCI-H1793
Olaparib + Palbociclib; first compound 0.08 µM
  relative viability: 0.274
Olaparib + Palbociclib; first compound 0.253 µM
  relative viability: 0.302
Olaparib + Palbociclib; first compound 2.53 µM
  relative viability: 0.327
Olaparib + Palbociclib; first compound 8 µM
  relative viability: 0.286
Olaparib + Luminespib; first compound 0.08 µM
  relative viability: 0.144
Olaparib + Luminespib; first compound 0.253 µM
  relative viability: 0.225
Olaparib + Luminespib; first compound 2.53 µM
  relative viability: 0.138
Olaparib + Luminespib; first compound 8 µM
  relative viability: 0.149
Olaparib + OSI-027; first compound 0.08 µM
  relative viability: 0.279
Olaparib + OSI-027; first compound 0.253 µM
  relative viability: 0.295
Olaparib + OSI-027; first compound 2.53 µM
  relative viability: 0.29
Olaparib + OSI-027; first compound 8 µM
  relative viability: 0.243
Olaparib + Lapatinib; first compound 0.08 µM
  relative viability: 0.641
Olaparib + Lapatinib; first compound 0.253 µM
  relative viability: 0.5
Olaparib + Lapatinib; first compound 2.53 µM
  relative viability: 0.578
Olaparib + Lapatinib; first compound 8 µM
  relative viability: 0.649
Olaparib + Decitabine; first compound 0.08 µM
  relative viability: 0.338
Olaparib + Decitabine; first compound 0.253 µM
  relative viability: 0.417
Olaparib + Decitabine; first compound 2.53 µM
  relative viability: 0.337
Olaparib + Decitabine; first compound 8 µM
  relative viability: 0.326
